Laboratory results published in US11045438B2, “Cysteine composition and injection” (Exela Sterile Medicines LLC, priority 2019, dated 2021).
Converted amounts (≈) assume the structure as drawn. Where two headings read alike, the source gives them in different places.

Assays:
physchem = conditions: 22 °C
Source text: Cystine, a sulfur-sulfur dimer of cysteine, can form in the presence of oxygen (air) in cysteine solutions. Cystine, especially the free base, is several orders of magnitude less soluble in aqueous solutions than cysteine, and the solubility of cystine decreases as the pH increases.

[1] = cited from earlier work
[2] = aqueous with cosolvent or surfactant or cyclodextrin

Structure (SMILES)	solubility (physchem; [2]) [µg/mL]	solubility (physchem; water) [µg/mL]	solubility ([1]; pH 1.0)	solubility ([1]; pH 1.4)
Cl.Cl.N[C@@H](CSSC[C@H](N)C(=O)O)C(=O)O [Cystine Dihydrochloride]	9930	1040		
N[C@@H](CSSC[C@H](N)C(=O)O)C(=O)O [Cystine free Base, Cystine]	590 (≈ 2460 µM)	140 (≈ 583 µM)	approximately 4 mg/mL	approximately 1 mg/ml
N[C@@H](CS)C(=O)O [Cysteine free base, Cysteine]		18700 (≈ 155000 µM)		
